Reference: patent publication US9969677B2, “Histone acetyltransferase modulators and uses thereof” (THE TRUSTEES OF COLUMBIA UNIVERSITY IN THE CITY OF NEW YORK, priority 2010, dated 2018)
pEC50: −log10 of the molar value.

Tests used:
[1] = cited from earlier work
[2] = cited from earlier work; remark: listed apart in the source
[3] = molecular target: T1, p300 (Homo sapiens, UniProt Q09472); assay: acetyltransferase activity assay (Enzo Life Sciences), P300; assay type: biochemical; conditions: for pEC50: Table 1, activation of P300 according to b440
T1 construct: the catalytic domain of human CBP, PCAF, p300 and GCN5 (Enzo Life Sci., USA) can be used; purchased Enzo Life Sciences
T1 sequence (Q09472 1287-1663 limits assumed): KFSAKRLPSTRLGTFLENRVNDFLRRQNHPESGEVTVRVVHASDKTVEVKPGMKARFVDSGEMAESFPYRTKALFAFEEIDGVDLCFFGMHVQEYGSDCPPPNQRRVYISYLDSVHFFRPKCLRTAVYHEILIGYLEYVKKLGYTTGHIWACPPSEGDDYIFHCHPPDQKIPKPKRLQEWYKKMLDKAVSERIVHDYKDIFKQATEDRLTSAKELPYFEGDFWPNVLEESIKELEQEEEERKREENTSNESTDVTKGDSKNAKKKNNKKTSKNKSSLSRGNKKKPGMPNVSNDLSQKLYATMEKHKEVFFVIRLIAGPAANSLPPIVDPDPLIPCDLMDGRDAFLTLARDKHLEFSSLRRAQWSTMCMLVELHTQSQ
Method: (§1) Commercial human HATs (CBP, p300, GCN5, PCAF (Enzo Life Sciences), and Tip60 (SignalChem)) were assayed in an acetyltransferase activity assay (Enzo Life Sciences, Cat. No. ADI-907-026). Each well contained, in addition to a HAT, histone 3 as the acetyl acceptor, acetyl-CoA as the acetyl donor in the reaction mixture and compounds (1% DMSO) at the appropriate concentrations. The reaction was carried out at room temperature. Enzyme activity was measured by monitoring the breakage of the substrate acetyl-CoA by HAT using a proprietary detection mixture. The fluorescent signal was measured using a Tecan microplate reader (excitation: 380 nm, emission: 520 nm). The assay methodology was adopted as it provided a 10-fold higher signal/background ratio and was more sensitive than other assays. […] Compound 10 had no effect with either P300 or CBP (FIG. 13).

[4] = molecular target: T2, CBP (Homo sapiens, UniProt Q92793); assay: acetyltransferase activity assay (Enzo Life Sciences), CBP; assay type: biochemical
T2 construct: the catalytic domain of human CBP, PCAF, p300 and GCN5 (Enzo Life Sci., USA) can be used; purchased Enzo Life Sciences
Method: as §1

[5] = molecular target: T3, Tip60 (Homo sapiens, UniProt Q92993); assay: acetyltransferase activity assay (Enzo Life Sciences), Tip60; assay type: biochemical; conditions: histone 3 acetyl acceptor, acetyl-CoA, room temperature
T3 construct: purchased SignalChem
Method: as §1

[6] = in vivo; cited from earlier work
[7] = test system: histone acetylation; conditions: cited from earlier work
[8] = test system: Aβ-induced reduction of LTP; assay: rescue of Aβ-induced reduction of LTP
Text: Synaptic dysfunction is a major hallmark of AD (Histol Histopathol, 1995. 10(2): p. 509-19; herein incorporated by reference in its entirety). An aspect of the drug screening protocol can include a measurement of the effect of compounds onto synaptic function. The APP/PS1 mouse presents an impairment of LTP by the age of 3 months (Ann Neurol, 2004. 55(6): p. 801-14; herein incorporated by reference in its entirety), and therefore permits a relatively fast assessment of synaptic function without waiting a long time for mice aging. LTP can be examined because it is a type of synaptic plasticity thought to underlie learning and memory. D rescues the Aβ-induced reduction of LTP, and other compounds can also be screened to identify those that can re-establish normal LTP. The compounds can be applied for 30 min. Controls can be performed on slices from APP/PS1 mice treated with vehicle, and WT mice treated with compound or vehicle. If the compounds re-establish normal LTP in APP/PS1 slices, one can conclude that the compounds rescue impairment of synaptic plasticity in APP/PS1 mice. Cognitive impairment can also be investigated (see Example 5).

[9] = cited from earlier work; remark: listed apart in the source
[10] = test system: PC12 cells, sympathetic neurons and hippocampal neurons; conditions: cited from earlier work
[11] = test system: APP/PS1 mouse; conditions: APP/PS1 double transgenic mouse; cited from earlier work
[12] = test system: APP/PS1 mouse; conditions: APP/PS1 double transgenic mouse; cited from earlier work; remark: listed apart in the source
[13] = in vivo; cited from earlier work; remark: listed apart in the source

T2 sequence (Q92793 1323-1700 limits assumed): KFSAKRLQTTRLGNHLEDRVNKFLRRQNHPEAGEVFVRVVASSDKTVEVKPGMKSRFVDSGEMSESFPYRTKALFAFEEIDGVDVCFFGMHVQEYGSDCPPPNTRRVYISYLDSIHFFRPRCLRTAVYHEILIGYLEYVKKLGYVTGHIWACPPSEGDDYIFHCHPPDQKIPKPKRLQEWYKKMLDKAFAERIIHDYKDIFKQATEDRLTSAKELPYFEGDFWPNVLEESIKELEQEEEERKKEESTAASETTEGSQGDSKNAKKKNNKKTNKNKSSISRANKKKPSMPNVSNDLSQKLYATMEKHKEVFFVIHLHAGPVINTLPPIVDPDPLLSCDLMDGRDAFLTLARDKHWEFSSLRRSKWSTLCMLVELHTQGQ
T3 sequence (Q92993 whole entry): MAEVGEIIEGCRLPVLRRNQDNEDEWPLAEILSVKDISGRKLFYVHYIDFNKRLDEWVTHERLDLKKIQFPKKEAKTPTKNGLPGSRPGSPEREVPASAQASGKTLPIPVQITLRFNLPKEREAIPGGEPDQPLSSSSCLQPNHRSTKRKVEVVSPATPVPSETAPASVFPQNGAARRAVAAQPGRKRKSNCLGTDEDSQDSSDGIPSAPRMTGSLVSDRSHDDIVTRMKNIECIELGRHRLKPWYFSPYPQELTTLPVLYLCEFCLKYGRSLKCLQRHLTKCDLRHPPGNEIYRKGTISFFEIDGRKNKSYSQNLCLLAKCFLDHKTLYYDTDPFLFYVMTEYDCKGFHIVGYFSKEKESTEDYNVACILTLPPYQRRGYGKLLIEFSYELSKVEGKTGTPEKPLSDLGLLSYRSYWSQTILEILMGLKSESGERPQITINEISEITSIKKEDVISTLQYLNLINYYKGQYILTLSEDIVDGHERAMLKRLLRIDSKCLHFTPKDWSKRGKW

SMILES: CCOc1ccccc1C(=O)Nc1ccc(Cl)c(C(F)(F)F)c1 [CTB]
- solubility [1]: insoluble
- membrane permeability [2]: membrane-impermeable

SMILES: CCCCCCCCCCCCCCCc1cccc(OCC)c1C(=O)Nc1ccc(Cl)c(C(F)(F)F)c1 [CTPB]
- solubility [1]: insoluble
- membrane permeability [2]: membrane-impermeable

SMILES: CCOc1cccc(OCCN2CCCCC2)c1C(=O)Nc1ccc(Cl)c(C(F)(F)F)c1 [Compound 8, N-[4-chloro-3-(trifluoromethyl)phenyl]-2-ethoxy-6-[2-(piperidin-1-yl)ethoxy] benzamide]
- pEC50 [3]: 8.56

SMILES: CCOc1cccc(OCCN2CCOCC2)c1C(=O)Nc1ccc(Cl)c(C(F)(F)F)c1 [Compound 9, N-[4-chloro-3-(trifluoromethyl)phenyl]-2-ethoxy-6-(2-morpholinoethoxy) benzamide]
- pEC50 [3]: 8.68

SMILES: CCOc1cccc(OCCN2CCNCC2)c1C(=O)Nc1ccc(Cl)c(C(F)(F)F)c1 [Compound 10, N-[4-chloro-3-(trifluoromethyl)phenyl]-2-ethoxy-6-[2-(piperazin-1-yl)ethoxy]benzamide]
- effect on CBP, initial screening (FIG. 13) [4]: no effect
- pEC50 [3]: 8.68
- effect on P300, initial screening (FIG. 13) [3]: no effect

SMILES: CCOc1cccc(OCCN2CCN(C)CC2)c1C(=O)Nc1ccc(Cl)c(C(F)(F)F)c1 [Compound 11, N-[4-chloro-3-(trifluoromethyl)phenyl]-2-ethoxy-6-[2-(4-methylpiperazin-1-yl)ethoxy]benzamide]
- effect on CBP, initial screening (FIG. 13) [4]: no effect
- pEC50 [3]: 8.64
- effect on P300, initial screening (FIG. 13) [3]: inhibited

SMILES: CCOc1cccc(OCCN(CC)CC)c1C(=O)Nc1ccc(Cl)c(C(F)(F)F)c1 [Compound 12, N-(4-chloro-3-(trifluoromethyl)phenyl)-2-(2-(diethylamino)ethoxy)-6-ethoxybenzamide]
- pEC50 [3]: 8.83

SMILES: CCOc1cccc(OCCCN(C)C)c1C(=O)Nc1ccc(Cl)c(C(F)(F)F)c1 [Compound 13, N-[4-chloro-3-(trifluoromethyl)phenyl]-2-[3-(dimethylamino)propoxy]-6-ethoxybenzamide]
- pEC50 [3]: 8.88

SMILES: CCOc1cccc(OCCN(C)C)c1C(=O)NCc1ccc(Cl)c(C(F)(F)F)c1 [Compound 16, N-[4-chloro-3-(trifluoromethyl)benzyl]-2-(2-(dimethylamino)ethoxy)-6-ethoxybenzamide]
- effect on CBP, initial screening (FIG. 13) [4]: activated only CBP
- pEC50 [3]: 8.74

SMILES: CCOc1cccc(OCCN(C)C)c1/C=N/c1ccc(Cl)c(C(F)(F)F)c1 [Compound 17, 4-chloro-N-[2-(2-(dimethylamino)ethoxy)-6-ethoxybenzylidene]-3-(trifluoromethyl)aniline]
- effect on CBP, initial screening (FIG. 13) [4]: activated only CBP

SMILES: CCOc1ccc(OCCN(C)C)c(C(=O)Nc2ccc(Cl)c(C(F)(F)F)c2)c1 [Compound 18, N-(4-chloro-3-(trifluoromethyl)phenyl)-2-(2-(dimethylamino)ethoxy)-5-ethoxybenzamide]
- effect on CBP, initial screening (FIG. 13) [4]: activated only CBP
- pEC50 [3]: 8.64

SMILES: CCOc1ccc(C(=O)Nc2ccc(Cl)c(C(F)(F)F)c2)c(OCCN(C)C)c1 [Compound 19, N-(4-chloro-3-(trifluoromethyl)phenyl)-2-(2-(dimethylamino)ethoxy)-4-ethoxybenzamide]
- pEC50 [3]: 8.73

SMILES: CCOc1cccc(O)c1C(=O)Nc1ccc(Cl)c(C(F)(F)F)c1 [Compound 25, N-[4-chloro-3-(trifluoromethyl)phenyl]-2-ethoxy-6-hydroxybenzamide]
- effect on CBP, initial screening (FIG. 13) [4]: activated only CBP

SMILES: CCOc1cccc(O)c1CNc1ccc(Cl)c(C(F)(F)F)c1 [Compound 26, 2-[((4-chloro-3-(trifluoromethyl)phenyl)amino)methyl]-3-ethoxyphenol]
- effect on CBP, initial screening (FIG. 13) [4]: activated only CBP

SMILES: CCOc1cccc(OCCN(C)C)c1C(=O)Nc1ccc(Cl)c(C(F)(F)F)c1 [Compound D, N-[4-chloro-3-(trifluoromethyl)phenyl]-2-[2-(dimethyl-amino)ethoxy]-6-ethoxybenzamide]
- pEC50 [5]: < 3.70
- safety in acute toxicity tests [6]: safe
- histone acetylation [7]: increases histone acetylation
- Aβ-induced reduction of LTP [8]: rescues
- BBB permeability [9]: BBB permeant
- pEC50 ([4]; histone 3 acetyl acceptor, acetyl-CoA, room temperature): 8.35
- pEC50 [3]: 8.42
- solubility [1]: soluble
- membrane permeability [2]: membrane permeable

SMILES: CC(C)(SN=O)[C@H](N)C(=O)O [S-nitroso penicillamine]
- protection against Aβ-induced neurotoxicity [10]: exerts a neuroprotective effect

SMILES: CC(/C=C/C(=O)NO)=C\[C@@H](C)C(=O)c1ccc(N(C)C)cc1 [TSA]
- LTP [11]: ameliorates
- contextual fear conditioning (FC) / contextual learning [12]: ameliorates

SMILES: Cc1cc(-c2ccccc2)nnc1NCCN1CCOCC1 [minaprine]
- brain/blood ratio [13]: > 2

SMILES: COc1ccc(C2CNC(=O)C2)cc1OC1CCCC1 (stereo not shown) [rolipram]
- LTP [11]: ameliorates deficits
- contextual fear conditioning (FC) / contextual learning [12]: ameliorates deficits
